Measured values taken from US9789099B2, “Cosmetic or dermatological preparation for prophylaxis and/or treatment of atopic dermatitis” (Beiersdorf AG, priority 2012, dated 2017).

Tests used:
Format in all cases: in vivo, human
S. aureus = assay: Same study: colonization of the skin lesions with S. aureus; settings: topical; same two-arm design
Excerpt: (§1) Using a randomized, blind (participant), controlled, two-armed study design, it was the aim to evaluate the cortisone saving potential and the non-inferiority of the test sample during an application twice daily lasting for four weeks compared to the […] treatment with 1% hydrocortisone (HC), followed by an application of the test sample for a further three weeks. The study results were based on an assessment, controlled by the dermatologist, of the degree of severity of the clinical size of atopic dermatitis, the colonization of the skin lesions with S. aureus, biotechnological measurement of parameters of the epidermal barrier function, as well as the itching intensity in the test area.

[1] = tested on: lesional skin of patients with atopic dermatitis; assay: Same study: parameters of the epidermal barrier function (TEWL, skin moisture) on lesional skin
Excerpt: as §1

[2] = tested on: patients with atopic dermatitis of mild to moderate severity; assay: Randomized, blind, controlled two-armed study: dermatologist-assessed clinical severity (local SCORAD, erythema)
Excerpt: Using a randomized, blind (participant), controlled, two-armed study design, it was the aim to evaluate the cortisone saving potential and the non-inferiority of the test sample during an application twice daily lasting for four weeks compared to the once-weekly treatment with 1% hydrocortisone (HC), followed by an application of the test sample for a further three weeks. The study results were based on an assessment, controlled by the dermatologist, of the degree of severity of the clinical size of atopic dermatitis, the colonization of the skin lesions with S. aureus, biotechnological measurement of parameters of the epidermal barrier function, as well as the itching intensity in the test area.

C[C@]12CCC(=O)C=C1CC[C@@H]1[C@@H]2[C@@H](O)C[C@@]2(C)[C@H]1CC[C@]2(O)C(=O)CO [1% hydrocortisone, hydrocortisone]
colonization of skin lesions with S. aureus (S. aureus): significant reduction | skin moisture of lesional skin ([1]; application in the first study week): only slightly | lesional skin TEWL (transepidermal water loss) ([1]; topical, same two-arm design): significant reduction | erythema ([2]; topical, same two-arm design): significant reduction | local SCORAD ([2]; topical, test sample twice daily for four weeks vs 1% HC for first week followed by test sample for three weeks): significant reduction | changes in local SCORAD, erythema, TEWL and S. aureus colonization relative to the other arm ([2]; within the first study week, differences between arms not significant apart from TEWL on day 7): greater changes
